Measured values from PubChem BioAssay (NCI).
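Results reflect a 48-hour exposure of cells in 96-well plates to compound at five concentrations. The concentration for 50% growth inhibition is given as GI50. Definition used: TGI = concentration required for complete inhibition of growth.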

Key:
Assay in all cases: NCI anticancer screen, dose series, 48 h
786-0 renal = system: 786-0 renal
HS 578T breast = system: HS 578T breast
NCI-H460 lung = system: NCI-H460 lung
SF-268 CNS = system: SF-268 CNS
SF-539 CNS = system: SF-539 CNS
T-47D breast = system: T-47D breast
UACC-257 melanoma = system: UACC-257 melanoma
UO-31 renal = system: UO-31 renal

## CC(=Nc1ccccc1)C1=C(O)C(Cc2ccccc2)NC1=O (stereo not given)
786-0 renal
  GI50: 0.0586 µM
HS 578T breast
  GI50: 0.0354 µM
  TGI: > 100 µM
NCI-H460 lung
  GI50: 0.0375 µM
  TGI: 1.26 µM
SF-268 CNS
  GI50: 0.0586 µM
  TGI: > 76.2 µM
SF-539 CNS
  GI50: 0.0439 µM
  TGI: 0.501 µM
T-47D breast
  GI50: > 100 µM
  TGI: > 100 µM
UACC-257 melanoma
  GI50: > 100 µM
  TGI: > 100 µM
UO-31 renal
  GI50: 0.0832 µM
  TGI: > 100 µM

## CC1OC(OC2C(O[C@H]3CC[C@@]4(C)C(=CC[C@H]5[C@@H]6C[C@@H]7O[C@]8(CC[C@H](C)CN8)[C@@H](C)[C@@H]7[C@@]6(C)CC[C@@H]54)C3)OC(CO)C(O)C2OC2OC(CO)C(O)C(O)C2O)C(O)C(O)C1O (stereo not given in full)
786-0 renal
  TGI: 51 µM
HS 578T breast
  TGI: 31.2 µM
NCI-H460 lung
  TGI: 31.6 µM
SF-268 CNS
  TGI: 33.3 µM
SF-539 CNS
  TGI: 33.8 µM
T-47D breast
  TGI: 39 µM
UACC-257 melanoma
  TGI: 33 µM
UO-31 renal
  TGI: 33.2 µM

## Cn1ccnc1C(=O)/C=C/c1ccccc1
786-0 renal
  GI50: 4.34 µM
  TGI: 16.6 µM
HS 578T breast
  GI50: 2.39 µM
  TGI: 8.6 µM
NCI-H460 lung
  GI50: 3.2 µM
  TGI: 11.4 µM
SF-539 CNS
  GI50: 2.18 µM
  TGI: 4.78 µM
T-47D breast
  GI50: 2.78 µM
  TGI: 7.35 µM
UACC-257 melanoma
  GI50: 4.07 µM
  TGI: 16.2 µM
UO-31 renal
  GI50: 4.69 µM
  TGI: 71.4 µM

## COc1cc2c3c(n(CCCI)c(=O)c2cc1OC)-c1cc2c(cc1C3=O)OCO2
786-0 renal
  GI50: 1.37 µM
  TGI: > 100 µM
HS 578T breast
  GI50: > 100 µM
  TGI: > 100 µM
NCI-H460 lung
  GI50: 0.272 µM
  TGI: > 100 µM
SF-268 CNS
  GI50: 1.34 µM
  TGI: > 100 µM
SF-539 CNS
  GI50: 4.04 µM
  TGI: > 100 µM
T-47D breast
  GI50: > 100 µM
  TGI: > 100 µM
UACC-257 melanoma
  GI50: 3.77 µM
  TGI: 49.4 µM
UO-31 renal
  GI50: 2.53 µM
  TGI: > 100 µM

## O=C(O)c1cnc2[nH]ccn2c1=O
786-0 renal
  TGI: > 100 µM
NCI-H460 lung
  TGI: > 100 µM
SF-268 CNS
  TGI: > 100 µM
T-47D breast
  TGI: > 100 µM
UACC-257 melanoma
  TGI: > 100 µM
UO-31 renal
  TGI: > 100 µM

## O=[N+]([O-])c1c(Br)sc(Br)c1[N+](=O)[O-]
786-0 renal
  GI50: 1.73 µM
  TGI: 3.25 µM
HS 578T breast
  GI50: 2.59 µM
  TGI: 9.53 µM
NCI-H460 lung
  GI50: 6.67 µM
  TGI: 28.1 µM
SF-268 CNS
  GI50: 12.5 µM
  TGI: 25 µM
SF-539 CNS
  GI50: 2.49 µM
  TGI: 6.35 µM
T-47D breast
  GI50: 1.84 µM
  TGI: 4.38 µM
UACC-257 melanoma
  GI50: 1.52 µM
  TGI: 3.04 µM
UO-31 renal
  GI50: 1.59 µM
  TGI: 3.55 µM

## CC1(C)[C@@H](O[C@@H]2OC[C@@H](O[C@@H]3O[C@H](CO)[C@@H](O)[C@H](O)[C@H]3O[C@@H]3OC[C@@H](O)[C@H](O)[C@H]3O)[C@H](O)[C@H]2O[C@@H]2O[C@H](CO)[C@@H](O)[C@H](O)[C@H]2O)CC[C@]2(C)[C@H]3CC[C@]45OC[C@@]6(CC[C@](C)(C=O)C[C@H]64)[C@H](O)C[C@@]5(C)[C@]3(C)CC[C@@H]12
786-0 renal
  GI50: 2.84 µM
  TGI: 5.77 µM
HS 578T breast
  GI50: 0.995 µM
  TGI: 2.4 µM
NCI-H460 lung
  GI50: 1.17 µM
  TGI: 3.26 µM
SF-268 CNS
  GI50: 0.963 µM
  TGI: 1.99 µM
SF-539 CNS
  GI50: 1.21 µM
  TGI: 3.35 µM
T-47D breast
  GI50: 1.52 µM
  TGI: 5 µM
UACC-257 melanoma
  GI50: 0.92 µM
  TGI: 1.83 µM
UO-31 renal
  GI50: 0.649 µM
  TGI: 1.32 µM

## Fc1ccc(Nc2nc3nonc3nc2Nc2ccc(F)cc2)cc1
786-0 renal
  GI50: 0.509 µM
  TGI: 8.48 µM
HS 578T breast
  GI50: 0.37 µM
  TGI: 4.03 µM
NCI-H460 lung
  GI50: 0.319 µM
  TGI: 10.5 µM
SF-268 CNS
  GI50: 0.505 µM
  TGI: 14.3 µM
SF-539 CNS
  GI50: 0.486 µM
  TGI: 11.6 µM
T-47D breast
  GI50: 0.221 µM
  TGI: 0.775 µM
UACC-257 melanoma
  GI50: 0.401 µM
  TGI: 3.16 µM
UO-31 renal
  GI50: 0.285 µM
  TGI: 1.33 µM

## COc1ccc(-c2nc3ccccn3c2/C=C/C(=O)c2cc(OC)c(OC)c(OC)c2)cc1
786-0 renal
  GI50: 3.9 µM
  TGI: > 100 µM
HS 578T breast
  GI50: 2.89 µM
  TGI: 51.7 µM
NCI-H460 lung
  GI50: 4.09 µM
  TGI: 31 µM
SF-268 CNS
  GI50: 4 µM
  TGI: > 100 µM
SF-539 CNS
  GI50: 2.39 µM
  TGI: 11.5 µM
T-47D breast
  GI50: 2.59 µM
  TGI: 14 µM
UACC-257 melanoma
  GI50: 5.85 µM
  TGI: > 100 µM
UO-31 renal
  GI50: 1.31 µM
  TGI: > 100 µM

## CN(C)c1ccc(Nc2cc(-c3cccc(OC(F)(F)F)c3)nc3ccc(N4CCCC4)cc23)cc1
786-0 renal
  GI50: 1.71 µM
  TGI: 3.24 µM
NCI-H460 lung
  GI50: 1.92 µM
  TGI: 3.66 µM
SF-268 CNS
  GI50: 1.85 µM
  TGI: 3.54 µM
SF-539 CNS
  GI50: 1.77 µM
  TGI: 3.36 µM
UACC-257 melanoma
  GI50: 1.75 µM
  TGI: 3.35 µM
UO-31 renal
  GI50: 1.77 µM
  TGI: 3.17 µM

## COc1cc2c(cc1C)NC(=O)/C2=C\c1cccc(Oc2ccccc2)c1
786-0 renal
  GI50: 13.2 µM
  TGI: 25.9 µM
HS 578T breast
  GI50: 39.1 µM
  TGI: 89.8 µM
NCI-H460 lung
  GI50: 12.9 µM
  TGI: 27.2 µM
SF-268 CNS
  GI50: 13.9 µM
  TGI: 31.5 µM
SF-539 CNS
  GI50: 19.4 µM
  TGI: 34.5 µM
T-47D breast
  GI50: 11.4 µM
  TGI: 81.4 µM
UACC-257 melanoma
  GI50: 21.7 µM
  TGI: 52.3 µM
UO-31 renal
  GI50: 11.7 µM
  TGI: 27.5 µM

## CN(CC(=O)N(Cc1ccc(C2CCCCC2)cc1)c1ccc(C(=O)O)c(O)c1)S(=O)(=O)c1c(F)c(F)c(F)c(F)c1F
786-0 renal
  GI50: 8.88 µM
  TGI: 23.8 µM
HS 578T breast
  GI50: 6.92 µM
  TGI: 35.1 µM
NCI-H460 lung
  GI50: 16.4 µM
  TGI: 36.5 µM
SF-268 CNS
  GI50: 7.19 µM
  TGI: 20.9 µM
SF-539 CNS
  GI50: 18.2 µM
  TGI: 35 µM
T-47D breast
  GI50: 8.14 µM
  TGI: 27 µM
UACC-257 melanoma
  GI50: 3.93 µM
  TGI: 8.53 µM
UO-31 renal
  GI50: 12 µM
  TGI: 25.8 µM

## CCCCS(=O)(=O)CCC(N)C(=O)O (stereo not given)
786-0 renal
  TGI: > 100 µM
HS 578T breast
  TGI: > 100 µM
NCI-H460 lung
  TGI: > 100 µM
SF-268 CNS
  TGI: > 100 µM
SF-539 CNS
  TGI: > 100 µM
T-47D breast
  TGI: > 100 µM
UACC-257 melanoma
  TGI: > 100 µM
UO-31 renal
  TGI: > 100 µM

## O=c1[nH]c(=O)n(C2CC(O)C(CO)O2)cc1C1=NC1 (stereo not given)
786-0 renal
  TGI: > 100 µM
HS 578T breast
  TGI: > 100 µM
NCI-H460 lung
  TGI: > 100 µM
SF-268 CNS
  TGI: > 100 µM
SF-539 CNS
  TGI: > 100 µM
T-47D breast
  TGI: > 100 µM
UACC-257 melanoma
  TGI: > 100 µM
UO-31 renal
  TGI: > 100 µM

## N#C/C(=C\c1cc(Cl)cc(Cl)c1)c1ccccn1
786-0 renal
  TGI: > 100 µM
NCI-H460 lung
  TGI: > 100 µM
SF-268 CNS
  TGI: > 100 µM
SF-539 CNS
  TGI: > 100 µM
UACC-257 melanoma
  TGI: > 100 µM
UO-31 renal
  TGI: > 100 µM

## CCCCCCCCCc1cccc(N2C(N)=NC(N)=NC2(C)C)c1
786-0 renal
  TGI: 1.3 µM
HS 578T breast
  TGI: 6.48 µM
NCI-H460 lung
  TGI: > 100 µM
SF-539 CNS
  TGI: 2.1 µM
T-47D breast
  TGI: 5.75 µM
UACC-257 melanoma
  TGI: 2.13 µM
UO-31 renal
  TGI: > 42.4 µM

## COc1cc(Nc2ccnc(NCCCNc3ccnc4cc(Cl)ccc34)n2)cc(OC)c1
786-0 renal
  GI50: 1.59 µM
  TGI: 3.12 µM
NCI-H460 lung
  GI50: 1.46 µM
  TGI: 3.77 µM
SF-268 CNS
  GI50: 1.8 µM
  TGI: 3.88 µM
SF-539 CNS
  GI50: 1.58 µM
  TGI: 3.09 µM
T-47D breast
  GI50: 1.89 µM
  TGI: 4.81 µM
UACC-257 melanoma
  GI50: 1.84 µM
  TGI: 3.44 µM
UO-31 renal
  GI50: 1.37 µM
  TGI: 2.79 µM
